{
  "source": "the supplement of paper PMC11208160",
  "data": [
    {"experiment": "recombinant barcode read abundance after kanamycin selection (control-corrected) (log10(CPM+1)); higher = more efficient recombination; sequences stand for … in AGTGCAGAGAAAATCGGCCAGTTTTCTCTGCCTGCAGTCCGCATGCCGT…AGATTTATGCAGCGGACTGCCTTTCTCCCAAAGTGATAAACCGGACAGTATCATGGACCGGTTTTCCCGGTAATCCGTATTTGCAAGGTTGGTTTCACT; site = the 11-nt target", "summary_of_the_method": "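Duplicate cultures were plated either on chloramphenicol/ampicillin LB agar, serving as control, or on chloramphenicol/ampicillin/kanamycin with 0.1 mM IPTG. These came from a pooled E. coli library co-electroporated with a donor plasmid, each member pairing a target with an IS621 bridge RNA target-binding loop. Recombination efficiency equals averaged, control-corrected counts per million of recombinant-junction barcodes. It is listed as log10(CPM+1).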", "values": [
      {"sequence": "TGAACTACTTGGGTTCTAACCTGTTGCCT (site TGAAATACTAG)", "recombinant barcode read abundance (log10)": 0.0445},
      {"sequence": "TGAACTACTTGGGTTCTAACCTGTTGCCT (site TGAACTACTAG)", "recombinant barcode read abundance (log10)": 0.192},
      {"sequence": "TGAACTACTTGGGTTCTAACCTGTTGCCT (site TGAAGTACTAG)", "recombinant barcode read abundance (log10)": 0.0835},
      {"sequence": "TGAACTACTTGGGTTCTAACCTGTTGCCT (site TGAATTACTAG)", "recombinant barcode read abundance (log10)": 0.065},
      {"sequence": "TGAAGTCCTTGGGTTCTAACCTGTTGCGG (site CGACGTCCTCC)", "recombinant barcode read abundance (log10)": 0.0219},
      {"sequence": "TGAAGTCCTTGGGTTCTAACCTGTTGCGG (site TGAAGTCCTCC)", "recombinant barcode read abundance (log10)": 1.25},
      {"sequence": "TGACAGGCTTGGGTTCTAACCTGTTGCAG (site GTACAGGCTCT)", "recombinant barcode read abundance (log10)": 0.278},
      {"sequence": "TGACAGGCTTGGGTTCTAACCTGTTGCAG (site TGACAGGCTCT)", "recombinant barcode read abundance (log10)": 1.88},
      {"sequence": "TGACCAGCTTGGGTTCTAACCTGTTGCCT (site TGACCAGCTAG)", "recombinant barcode read abundance (log10)": 1.05},
      {"sequence": "TGACCAGCTTGGGTTCTAACCTGTTGCCT (site TGAGAAGCTAG)", "recombinant barcode read abundance (log10)": 0.0639},
      {"sequence": "TGACCTTCTTGGGTTCTAACCTGTTGCCT (site TGACCTTCTAG)", "recombinant barcode read abundance (log10)": 0.526},
      {"sequence": "TGACCTTCTTGGGTTCTAACCTGTTGCCT (site TGACGTTCTAG)", "recombinant barcode read abundance (log10)": 0.0226},
      {"sequence": "TGACGCTCTTGGGTTCTAACCTGTTGCCT (site TGACGCTCTAG)", "recombinant barcode read abundance (log10)": 0.905},
      {"sequence": "TGACGCTCTTGGGTTCTAACCTGTTGCCT (site TGCCGCTCTAG)", "recombinant barcode read abundance (log10)": 0.149},
      {"sequence": "TGACGCTCTTGGGTTCTAACCTGTTGCCT (site TGGCGCTCTAG)", "recombinant barcode read abundance (log10)": 0.323},
      {"sequence": "TGACGCTCTTGGGTTCTAACCTGTTGCCT (site TGTCGCTCTAG)", "recombinant barcode read abundance (log10)": 0.433},
      {"sequence": "TGACTACCTTGGGTTCTAACCTGTTGCCT (site TCGCTACCTAG)", "recombinant barcode read abundance (log10)": 0.0696},
      {"sequence": "TGACTACCTTGGGTTCTAACCTGTTGCCT (site TGACTACCTAG)", "recombinant barcode read abundance (log10)": 0.838},
      {"sequence": "TGACTAGCTTGGGTTCTAACCTGTTGCCT (site TGACTAGCTAG)", "recombinant barcode read abundance (log10)": 0.176},
      {"sequence": "TGACTAGCTTGGGTTCTAACCTGTTGCCT (site TGCCTAGCTAG)", "recombinant barcode read abundance (log10)": 0.03},
      {"sequence": "TGACTAGCTTGGGTTCTAACCTGTTGCCT (site TGGCTAGCTAG)", "recombinant barcode read abundance (log10)": 0.0206},
      {"sequence": "TGACTAGCTTGGGTTCTAACCTGTTGCCT (site TGTCTAGCTAG)", "recombinant barcode read abundance (log10)": 0.0443},
      {"sequence": "TGAGAACCTTGGGTTCTAACCTGTTGCCT (site AGAGAACCTAG)", "recombinant barcode read abundance (log10)": 0.666},
      {"sequence": "TGAGAACCTTGGGTTCTAACCTGTTGCCT (site CGAGAACCTAG)", "recombinant barcode read abundance (log10)": 0.486},
      {"sequence": "TGAGAACCTTGGGTTCTAACCTGTTGCCT (site GGAGAACCTAG)", "recombinant barcode read abundance (log10)": 0.118},
      {"sequence": "TGAGAACCTTGGGTTCTAACCTGTTGCCT (site TGAGAACCTAG)", "recombinant barcode read abundance (log10)": 2.33},
      {"sequence": "TGAGAGGCTTGGGTTCTAACCTGTTGCCT (site TGAGAGGCTAG)", "recombinant barcode read abundance (log10)": 0.718},
      {"sequence": "TGAGAGGCTTGGGTTCTAACCTGTTGCCT (site TGAGCGGCTAG)", "recombinant barcode read abundance (log10)": 0.173},
      {"sequence": "TGAGAGGCTTGGGTTCTAACCTGTTGCCT (site TGAGGGGCTAG)", "recombinant barcode read abundance (log10)": 0.361},
      {"sequence": "TGAGAGGCTTGGGTTCTAACCTGTTGCCT (site TGAGTGGCTAG)", "recombinant barcode read abundance (log10)": 0.638},
      {"sequence": "TGAGTCCCTTGGGTTCTAACCTGTTGCCT (site TGAGTCCCTAG)", "recombinant barcode read abundance (log10)": 2.03},
      {"sequence": "TGAGTCCCTTGGGTTCTAACCTGTTGCCT (site TGCGTCCCTAG)", "recombinant barcode read abundance (log10)": 0.201},
      {"sequence": "TGAGTCCCTTGGGTTCTAACCTGTTGCCT (site TGGGTCCCTAG)", "recombinant barcode read abundance (log10)": 0.444},
      {"sequence": "TGAGTCCCTTGGGTTCTAACCTGTTGCCT (site TGTGTCCCTAG)", "recombinant barcode read abundance (log10)": 0.523},
      {"sequence": "TGATATGCTTGGGTTCTAACCTGTTGCCT (site TGAAATGCTAG)", "recombinant barcode read abundance (log10)": 0.322},
      {"sequence": "TGATATGCTTGGGTTCTAACCTGTTGCCT (site TGACATGCTAG)", "recombinant barcode read abundance (log10)": 0.347},
      {"sequence": "TGATATGCTTGGGTTCTAACCTGTTGCCT (site TGAGATGCTAG)", "recombinant barcode read abundance (log10)": 0.0846},
      {"sequence": "TGATATGCTTGGGTTCTAACCTGTTGCCT (site TGATATGCTAG)", "recombinant barcode read abundance (log10)": 0.463},
      {"sequence": "TGATTGACTTGGGTTCTAACCTGTTGCTT (site GATGCACCTCC)", "recombinant barcode read abundance (log10)": 0.194},
      {"sequence": "TGATTGACTTGGGTTCTAACCTGTTGCTT (site TGATTGACTAA)", "recombinant barcode read abundance (log10)": 0.0769},
      {"sequence": "TGCATAGCTTGGGTTCTAACCTGTTGCCA (site CTTGCGACTAA)", "recombinant barcode read abundance (log10)": 0.068},
      {"sequence": "TGCATAGCTTGGGTTCTAACCTGTTGCCA (site TGCATAGCTTG)", "recombinant barcode read abundance (log10)": 0.0795},
      {"sequence": "TGCCACCCTTGGGTTCTAACCTGTTGCGT (site TACTACCCTAC)", "recombinant barcode read abundance (log10)": 0.0993}
    ]}
  ]
}
